Assay [1] deals with T1, human GIP receptor (Homo sapiens, UniProt P48546).
T1 construct: host or cells: COS-7, transient transfection (calcium phosphate), cDNA in pCMV-Script
T1 sequence (P48546 22-466): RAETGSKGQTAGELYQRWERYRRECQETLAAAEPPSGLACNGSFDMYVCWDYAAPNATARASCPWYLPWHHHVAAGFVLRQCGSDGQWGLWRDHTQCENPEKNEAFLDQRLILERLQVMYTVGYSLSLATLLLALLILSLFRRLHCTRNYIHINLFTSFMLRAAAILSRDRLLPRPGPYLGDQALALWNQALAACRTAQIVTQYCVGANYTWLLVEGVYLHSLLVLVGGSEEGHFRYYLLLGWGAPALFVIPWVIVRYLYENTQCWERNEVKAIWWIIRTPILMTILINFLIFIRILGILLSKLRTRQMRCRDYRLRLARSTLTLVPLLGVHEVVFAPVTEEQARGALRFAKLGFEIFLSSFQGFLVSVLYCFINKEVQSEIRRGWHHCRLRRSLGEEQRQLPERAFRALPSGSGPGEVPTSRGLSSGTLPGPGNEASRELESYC
Briefly: cAMP accumulation assay, agonism (ligand alone). It counts as cell-based. As to conditions: COS-7 cells, Table 1; for Emax: COS-7, intrinsic cAMP activity; for EC50: read-out: cAMP agonism nM (EC50).

The target of assay [2] is T1, human GIP receptor. Briefly: cAMP accumulation assay, antagonism of a GIP-mediated cAMP response (50-80% of max). It counts as cell-based. As to conditions: for Fold change of IC50 versus GIP(5-30)NH2: fold change of IC50 from GIP(5-30)NH2. As for the experimental part:
The day after, the cells were washed twice with Hepes buffered saline (HBS) buffer and incubated with HBS and 1 mM 3-isobutyl-1-methylxanthine (IBMX) for 30 min at 37° C. […] The HitHunter™ cAMP XS assay (DiscoveRx) was carried out according to the manufacturer's instructions.

In assay [3] the target is T1, human GIP receptor. Briefly: 125I-human GIP competition binding assay, in the presence and absence of 2% HSA.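 On all read-outs here: nonspecific binding taken as radioligand bound to untransfected cells, IC50 obtained from nonlinear regression fits.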 The conditions noted are these: for Fold change HSA (2%)/Casein (0.1%): IC50 (plus HSA)/IC50 (minus HSA); for Binding (+/−HSA) Fold: fold change +HSA/−HSA.
Setting [4] is: transiently transfected COS-7 cells, Table 1 and text, read-out: cAMP antagonism nM (IC50, antagonistic potency).
[5] abbreviates: binding in 0.1% casein (absence of HSA), log value, read-out: logIC50 0.1% casein (converted).
Where [6] appears, read: heterologous competition binding, transiently transfected COS-7 cells expressing the human GIP receptor, read-out: Binding.

“And” between values parts separate entries of the source, which are not always exact repeats. Identical values can stand only once. Peptide text beside a SMILES is read from it. * marks the point of attachment. C16 diacid = O=C(O)CCCCCCCCCCCCCCC(=O)*; Palmitoyl = CCCCCCCCCCCCCCCC(=O)*

`CCCCCCCCCCCCCCCC(=O)NCCCC[C@H](NC(=O)[C@@H](NC(=O)[C@H](CCCNC(=N)N)NC(=O)[C@H](CC(=O)O)NC(=O)[C@H](CCSC)NC(=O)[C@H](C)NC(=O)[C@@H](NC(=O)[C@H](CO)NC(=O)[C@H](Cc1ccc(O)cc1)NC(=O)[C@H](CC(=O)O)NC(=O)[C@H](CO)NC(=O)[C@@H](NC(=O)[C@H](Cc1ccccc1)NC(=O)[C@@H](N)[C@@H](C)O)[C@@H](C)CC)[C@@H](C)CC)[C@@H](C)CC)C(=O)N[C@@H](CCC(N)=O)C(=O)N[C@@H](CCC(N)=O)C(=O)N[C@@H](CC(=O)O)C(=O)N[C@@H](Cc1ccccc1)C(=O)N[C@H](C(=O)N[C@@H](CC(N)=O)C(=O)N[C@@H](Cc1c[nH]c2ccccc12)C(=O)N[C@@H](CC(C)C)C(=O)N[C@@H](CC(C)C)C(=O)N[C@@H](C)C(=O)N[C@@H](CCC(N)=O)C(=O)N[C@@H](CCCNC(=N)N)C(N)=O)C(C)C` [AT134, [hGIP(5-30)NH2[K16R; H18K; K30R]-16/18]] (H-TFISDYSIAMDRIK(Palmitoyl)QQDFVNWLLAQR-NH2; N-terminus assumed) yielded a maximal effect (Emax) on human GIP receptor [1] of 11%. Also, at human GIP receptor [1], the EC50 stood at 35 nM. Besides, the IC50 is 93 nM at human GIP receptor [2] (setting [4]), 794 nM at human GIP receptor [3] (setting [5]) and 882 nM at human GIP receptor [3] (setting [6]). Moreover, the “Fold change HSA (2%)/Casein (0.1%)” value at human GIP receptor [3] is listed as 5.5.

As for `CC[C@H](C)[C@H](NC(=O)[C@H](CO)NC(=O)[C@H](Cc1ccc(O)cc1)NC(=O)[C@H](CC(=O)O)NC(=O)[C@H](CO)NC(=O)[C@@H](NC(=O)[C@H](Cc1ccccc1)NC(=O)[C@@H](N)[C@@H](C)O)[C@@H](C)CC)C(=O)N[C@@H](C)C(=O)N[C@@H](CCSC)C(=O)N[C@@H](CC(=O)O)C(=O)N[C@@H](CCCCN)C(=O)N[C@H](C(=O)N[C@@H](CCCCNC(=O)CCCCCCCCCCCCCCC(=O)O)C(=O)N[C@@H](CCC(N)=O)C(=O)N[C@@H](CCC(N)=O)C(=O)N[C@@H](CC(=O)O)C(=O)N[C@@H](Cc1ccccc1)C(=O)N[C@H](C(=O)N[C@@H](CC(N)=O)C(=O)N[C@@H](Cc1c[nH]c2ccccc12)C(=O)N[C@@H](CC(C)C)C(=O)N[C@@H](CC(C)C)C(=O)N[C@@H](C)C(=O)N[C@@H](CCC(N)=O)C(=O)N[C@@H](CCCCN)C(N)=O)C(C)C)[C@@H](C)CC` [AT156, [hGIP(5-30)NH2[H18K]-C16diacid/18]] (H-TFISDYSIAMDKIK(C16 diacid)QQDFVNWLLAQK-NH2; N-terminus assumed), on human GIP receptor [1], the maximal effect (Emax) was found to be 12%. Further, on human GIP receptor [1], the 50% effective concentration (EC50) came to 2 nM. In addition, the IC50 was found to be 24 nM on human GIP receptor [2] (antagonism of GIP-mediated cAMP response, COS-7 cells, read-out: cAMP accumulation IC50) and 12 nM on human GIP receptor [2] (setting [4]). Further, the “Fold change of IC50 versus GIP(5-30)NH2” value at human GIP receptor [2] was 0.9. Moreover, the figures for the Ki at human GIP receptor [3] (absence of HSA) and at human GIP receptor [3] (presence of 2% HSA) were 5 nM and 29 nM, respectively. The “Binding (+/−HSA) Fold” value at human GIP receptor [3] was found to be 5.8.

The molecule `CC[C@H](C)[C@H](NC(=O)[C@H](CO)NC(=O)[C@H](Cc1ccc(O)cc1)NC(=O)[C@H](CC(=O)O)NC(=O)[C@H](CO)NC(=O)[C@@H](NC(=O)[C@H](Cc1ccccc1)NC(=O)[C@@H](N)[C@@H](C)O)[C@@H](C)CC)C(=O)N[C@@H](C)C(=O)N[C@@H](CCSC)C(=O)N[C@@H](CC(=O)O)C(=O)N[C@@H](CCCCN)C(=O)N[C@H](C(=O)N[C@@H](Cc1c[nH]cn1)C(=O)N[C@@H](CCC(N)=O)C(=O)N[C@@H](CCC(N)=O)C(=O)N[C@@H](CC(=O)O)C(=O)N[C@@H](Cc1ccccc1)C(=O)N[C@H](C(=O)N[C@@H](CC(N)=O)C(=O)N[C@@H](Cc1c[nH]c2ccccc12)C(=O)N[C@@H](CCCCNC(=O)CCCCCCCCCCCCCCC(=O)O)C(=O)N[C@@H](CC(C)C)C(=O)N[C@@H](C)C(=O)N[C@@H](CCC(N)=O)C(=O)N[C@@H](CCCCN)C(N)=O)C(C)C)[C@@H](C)CC` [AT186, [hGIP(5-30)NH2[L26K]-C16diacid/26]] (H-TFISDYSIAMDKIHQQDFVNWK(C16 diacid)LAQK-NH2; N-terminus assumed) gave an Emax on human GIP receptor [1] of 0%. Moreover, the “Fold change of IC50 versus GIP(5-30)NH2” value on human GIP receptor [2] was found to be 2.6. For the same molecule, the IC50 at human GIP receptor [2] (setting [4]) worked out at 79 nM. Besides, at human GIP receptor [3], the “Fold change HSA (2%)/Casein (0.1%)” value turned out to be 3.8 and the “Binding (+/−HSA) Fold” value is listed as 7.9. The Ki on human GIP receptor [3] (absence of HSA) came out at 105 nM. Moreover, on human GIP receptor [3] (heterologous competition binding, transiently transfected COS-7 cells expressing the human GIP receptor, log value of the nM column, read-out: Binding log (converted)), the IC50 is 158 nM and 144 nM.

Consider `CC[C@H](C)[C@H](NC(=O)[C@H](CO)NC(=O)[C@H](Cc1ccc(O)cc1)NC(=O)[C@H](CC(=O)O)NC(=O)[C@H](CO)NC(=O)[C@@H](NC(=O)[C@H](Cc1ccccc1)NC(=O)[C@@H](NC(=O)CCCCCCCCCCCCCCCCC(=O)O)[C@@H](C)O)[C@@H](C)CC)C(=O)N[C@@H](C)C(=O)N[C@@H](CCSC)C(=O)N[C@@H](CC(=O)O)C(=O)N[C@@H](CCCCN)C(=O)N[C@H](C(=O)N[C@@H](Cc1c[nH]cn1)C(=O)N[C@@H](CCC(N)=O)C(=O)N[C@@H](CCC(N)=O)C(=O)N[C@@H](CC(=O)O)C(=O)N[C@@H](Cc1ccccc1)C(=O)N[C@H](C(=O)N[C@@H](CC(N)=O)C(=O)N[C@@H](Cc1c[nH]c2ccccc12)C(=O)N[C@@H](CC(C)C)C(=O)N[C@@H](CC(C)C)C(=O)N[C@@H](C)C(=O)N[C@@H](CCC(N)=O)C(=O)N[C@@H](CCCCN)C(N)=O)C(C)C)[C@@H](C)CC` [AT138, [hGIP(5-30)NH2—C18diacid/5]], for which the maximal effect (Emax) on human GIP receptor [1] turned out to be 0%. In addition, the “Ability to antagonize the GIP-mediated cAMP response (in words)” value on human GIP receptor [2] is “failed to antagonize”. Also, the “Fold change HSA (2%)/Casein (0.1%)” value on human GIP receptor [3] amounted to 3.8. Also, the IC50 at human GIP receptor [3] (setting [5]) is 2510 nM; on human GIP receptor [3] (setting [6]), 2640 nM.

As for `CCCCCCCCCCCC(=O)N[C@H](C(=O)N[C@@H](Cc1ccccc1)C(=O)N[C@H](C(=O)N[C@@H](CO)C(=O)N[C@@H](CC(=O)O)C(=O)N[C@@H](Cc1ccc(O)cc1)C(=O)N[C@@H](CO)C(=O)N[C@H](C(=O)N[C@@H](C)C(=O)N[C@@H](CCSC)C(=O)N[C@@H](CC(=O)O)C(=O)N[C@@H](CCCCN)C(=O)N[C@H](C(=O)N[C@@H](Cc1c[nH]cn1)C(=O)N[C@@H](CCC(N)=O)C(=O)N[C@@H](CCC(N)=O)C(=O)N[C@@H](CC(=O)O)C(=O)N[C@@H](Cc1ccccc1)C(=O)N[C@H](C(=O)N[C@@H](CC(N)=O)C(=O)N[C@@H](Cc1c[nH]c2ccccc12)C(=O)N[C@@H](CC(C)C)C(=O)N[C@@H](CC(C)C)C(=O)N[C@@H](C)C(=O)N[C@@H](CCC(N)=O)C(=O)N[C@@H](CCCCN)C(N)=O)C(C)C)[C@@H](C)CC)[C@@H](C)CC)[C@@H](C)CC)[C@@H](C)O` [AT118, [hGIP(5-30)NH2—C12/5]], the Emax at human GIP receptor [1] worked out at 0%. At human GIP receptor [2], the “Ability to antagonize the GIP-mediated cAMP response (in words)” value is listed as “high potent antagonists”. In addition, the IC50 was 29 nM at human GIP receptor [2] (setting [4]); 126 nM on human GIP receptor [3] (setting [5]); 881 nM at human GIP receptor [3] (binding in presence of 2% HSA, read-out: logIC50 2% HSA (converted)); 102 nM on human GIP receptor [3] (setting [6]). Besides, the “Affinity compared to GIP(3-30)NH2 (in words)” value at human GIP receptor [3] is “affinities in the same range as GIP(3-30)NH2”. For the same molecule, the “Fold change HSA (2%)/Casein (0.1%)” value at human GIP receptor [3] is 7.7.

The values are drawn from US11572399B2, “Long-acting GIP peptide analogues” (University of Copenhagen, priority 2017, dated 2023).
